# From US9512474B2, “Molecular targets and methods for formulation screening and preservative efficacy testing” (LONZA WALKERSVILLE INC., priority 2011, dated 2016)
# Several values for one entry are separate records, joined by “and”; a condition that tells them apart may be missing. Equal entries are not always repeated.
# Experiments:
# Format in all cases: cell-based
# Escherichia coli [1] = experiment: pre-rRNA RT-PCR viability assay (preservative efficacy testing)
# Description: (§1) The specific systems for E. coli, B. subtilis and S. marcescens are designed on the 3′ end of the 16S rRNA transcript. The three systems are species-specific. In these examples, the reverse primer hybridizes on the pre-rRNA region and the forward primer and probe in the mature rRNA region. The amplification will therefore be effective only if pre-rRNAs are present in the cells. FIG. 2 illustrates E. coli, B. subtilis and S. marcescens pre-rRNA-specific systems designed in the 3′ end of the 16S pre-rRNA for use with RT-PCR (forward primer, reverse primer, and forward probe).
# (§2) Assays such as those disclosed herein, and assays developed under the guidelines of the provided examples, can be used in Formulation Screening and/or Preservative Efficacy Testing. An exemplary protocol is as follows: non-treated (or viable) and preservative-treated cells are analyzed in parallel with the same procedure and the same reagents: • Cells are calibrated to an expected density (CFU/ml) and collected by centrifugation on a filter membrane. • Two milliliters of RNA Booster (nutrients) are applied to the membrane of the filtration unit and these are incubated two hours for bacteria and four hours for fungi at 35° C.±2° C. (or appropriate temperature). • After incubation, the filtration units are centrifuged to remove the RNA Booster and 1.5 milliliters of lysis buffer are added to each membrane. • Cell lysates are recovered manually by pipetting and transferred into a lysis tube for a mechanical lysis process. • Lysate is then transferred in a sample prep tube. • RNA is extracted and purified using a known nucleic acid isolation method (i.e., RNA magnetic beads, silica resin). • DNA is removed by DNAse treatment to ensure predominantly an RNA target. • Eluted RNA is amplified by RT-PCR. The master mix used for the RT-PCR contains all reagents needed for the RT-PCR including specific primers and probe targeting the pre-rRNA or EF-3 mRNA sequences.
# (§3) The referenced guidelines followed for this assay are the European Pharmacopoeia (EP)—Chapter 5.1.3 <<Efficacy of Antimicrobial Preservation>> and the United States Pharmacopeia (USP)—Chapter 51 <<Antimicrobial Effectiveness Testing>>. The value obtained by RT-PCR for the non-treated cells is compared to the value obtained for the treated cells. As used herein Ct stands for threshold cycle; i.e., the intersection between an amplification curve and a threshold line. According to the EP requirements, in a positive result as disclosed herein the difference of the Ct values is at least 3 logs, which corresponds to a ΔCt≧10 for bacteria and at least 2 logs, which corresponds to a ΔCt≧6.6 for fungi, after one day (24 hours) and seven days, respectively, for bacteria and fungi, of preservative treatment. USP requires data analysis after seven days and fourteen days for bacteria and fungi, respectively.
# (§4) Preservative treatments were evaluated at high cells concentrations (10^6 and 10^5 cells per assay) that are commonly used for formulation screening. Five replicates at each cell concentration were analyzed. The Ct value corresponds to the RT-PCR cycle for which the level of fluorescence is outside the fluorescence background. The method compares Ct values for non-treated and treated cells and is expressed as the ΔCt.
# (§5) The tables set forth below summarize the Ct values obtained for six bacteria and two fungi using six treatments: Heat, Isopropanol, Preservatives BAC, Poly-Q and IPBC and a commercial contact lens solution. Ct values obtained for non-treated cells (viable) are compared to Ct values obtained for treated cells. The ΔCt calculated is reported and must be ≧10 to meet the specification of 3 logs reduction for bacteria and must be ≧6.6 to meet the specification of 2 logs reduction for fungi. All assays are performed on the BD Max6 instrument from Becton Dickinson. Data are obtained by multiple operators on different days.
# Serratia marcescens [2] = experiment: as above
# Description: as §1, §2, §3, §4, §5
# Pseudomonas aeruginosa [3] = experiment: as above
# Description: (§6) The specific systems for S. aureus, P. aeruginosa and S. epidermidis are designed on the 5′ end of the 23S rRNA. The three systems are species-specific. The forward primer hybridizes in the pre-rRNA region and the reverse primer and the forward probe in the mature rRNA region. The amplification is thus effective only if pre-rRNAs are present in the cells. FIG. 3 illustrates S. aureus, P. aeruginosa and S. epidermidis pre-rRNA-specific systems designed in the 5′ end of the 23S pre-rRNA for use with RT-PCR (forward primer, reverse primer, and forward probe).
# as §2, §3, §4, §5
# Staphylococcus aureus [4] = experiment: as above
# Description: as §6, §2, §3, §4, §5
# Aspergillus brasiliensis [5] = experiment: as above; conditions: 10^6 cells
# Description: The specific system for A. brasiliensis is designed on the 5′ end of the 5.8S rRNA. This system is species-specific. The forward primer hybridizes in the pre-rRNA region and the reverse primer and the forward probe in the mature rRNA region. The amplification is thus effective only if pre-rRNAs are present in the cells. FIG. 4 illustrates A. brasiliensis pre-rRNA-specific systems designed in the 5′ end of the 5.8S pre-rRNA for use with RT-PCR (forward primer, reverse primer, and forward probe).
# as §2, §3, §4, §5
# Candida albicans [6] = experiment: EF-3 mRNA RT-PCR viability assay (preservative efficacy testing); conditions: 10^5 cells
# Description: The specific system for C. albicans is designed on the mRNA of the EF-3 gene. This system is species-specific. The forward primer, the forward probe and the reverse primer hybridize in the internal sequence of the mRNA of the EF-3 gene. The amplification is thus effective only if the EF-3 mRNAs are present in the cells. FIG. 5 illustrates C. albicans EF-3 mRNA specific system designed in the internal sequence of the EF-3 mRNA for use with RT-PCR (forward primer, reverse primer, and forward probe).
# as §2, §3, §4, §5
# Escherichia coli [7] = experiment: Control plate of treated cells (colonies); conditions: 10^6 cells
# Pseudomonas aeruginosa [8] = experiment: Control plate of treated cells (colonies); conditions: 10^6 cells
# Staphylococcus aureus [9] = experiment: Control plate of treated cells (colonies); conditions: 10^6 cells
# Serratia marcescens [10] = experiment: Control plate of treated cells (colonies); conditions: 10^6 cells
# Aspergillus brasiliensis [11] = experiment: Control plate of treated cells (colonies); conditions: from day 1 to day 7 at room temperature (day not specified); 10^6 cells
# Candida albicans [12] = experiment: Control plate of treated cells (colonies); conditions: from day 1 to day 14 at room temperature (day not specified); 10^5 cells
# [13] = 24 H at room temperature, 10^5 cells
# [14] = 24 H at room temperature, 10^6 cells
# [15] = 1 H at room temperature, 10^5 cells
# [16] = 1 H at room temperature, 10^6 cells
molecule,measurement,setting,value
Benzalkonium Chloride [BAC],Ct Treated,Escherichia coli [1]; [13],32.65 and 31.54 and 31.77 and 32.76 and 32.45
same,Mean Ct (Treated),Escherichia coli [1]; [13],32.23
same,Δ Ct Viable − Dead,Escherichia coli [1]; [13],18.57
same,Ct Treated,Escherichia coli [1]; [14],32.61 and 34.26 and 33.74 and 30.48 and 33.39
same,Mean Ct (Treated),Escherichia coli [1]; [14],32.90
same,Δ Ct Viable − Dead,Escherichia coli [1]; [14],21.33
same,Mean Ct (Treated),Serratia marcescens [2]; [13],36.13
same,Δ Ct Viable − Dead,Serratia marcescens [2]; [13],20.09
same,Ct Treated,Serratia marcescens [2]; [14],34.20 and 34.30 and 32.80 and 35.50
same,Mean Ct (Treated),Serratia marcescens [2]; [14],34.20
same,Δ Ct Viable − Dead,Serratia marcescens [2]; [14],22.28
same,Mean Ct (Treated),Pseudomonas aeruginosa [3]; [13],31.92
same,Δ Ct Viable − Dead,Pseudomonas aeruginosa [3]; [13],12.39
same,Mean Ct (Treated),Pseudomonas aeruginosa [3]; [14],30.72
same,Δ Ct Viable − Dead,Pseudomonas aeruginosa [3]; [14],14.53
same,Ct Treated,Staphylococcus aureus [4]; [13],29.75 and 30.23 and 29.39 and 29.28 and 30.03
same,Mean Ct (Treated),Staphylococcus aureus [4]; [13],29.73
same,Δ Ct Viable − Dead,Staphylococcus aureus [4]; [13],12.29
same,Ct Treated,Staphylococcus aureus [4]; [14],26.23 and 27.50 and 26.54 and 26.71 and 26.64
same,Mean Ct (Treated),Staphylococcus aureus [4]; [14],26.72
same,Δ Ct Viable − Dead,Staphylococcus aureus [4]; [14],12.65
same,Ct Treated,Aspergillus brasiliensis [5]; Day 1 at room temperature,21.80 and 21.60 and 22.10
same,Mean Ct (Treated),Aspergillus brasiliensis [5]; Day 1 at room temperature,21.83
same,Δ Ct Viable − Dead,Aspergillus brasiliensis [5]; Day 1 at room temperature,11.63
same,Ct Treated,Aspergillus brasiliensis [5]; Day 2 at room temperature,22.40 and 21.90 and 23.90
same,Mean Ct (Treated),Aspergillus brasiliensis [5]; Day 2 at room temperature,22.73
same,Δ Ct Viable − Dead,Aspergillus brasiliensis [5]; Day 2 at room temperature,12.53
same,Ct Treated,Aspergillus brasiliensis [5]; Day 7 at room temperature,22.60 and 24.70 and 22.50
same,Mean Ct (Treated),Aspergillus brasiliensis [5]; Day 7 at room temperature,23.27
same,Δ Ct Viable − Dead,Aspergillus brasiliensis [5]; Day 7 at room temperature,13.07
same,Ct Treated,Candida albicans [6]; Day 1 at room temperature,33.70 and 32.70 and 31.60 and 29.30
same,Mean Ct (Treated),Candida albicans [6]; Day 1 at room temperature,32.00
same,Δ Ct Viable − Dead,Candida albicans [6]; Day 1 at room temperature,13.90
same,Mean Ct (Treated),Candida albicans [6]; Day 7 at room temperature,33.67
same,Δ Ct Viable − Dead,Candida albicans [6]; Day 7 at room temperature,15.57
same,Mean Ct (Treated),Candida albicans [6]; Day 14 at room temperature,32.23
same,Δ Ct Viable − Dead,Candida albicans [6]; Day 14 at room temperature,14.13
same,Colonies on control plate of treated cells,Escherichia coli [7]; 24 H at room temperature,NC = Negative Control - Control plate of treated cells (10^6 cells) shows no colony on plate.
same,Colonies on control plate of treated cells,Pseudomonas aeruginosa [8]; 24 H at room temperature,NC = Negative Control - Control plate of treated cells (10^6 cells) shows no colony on plate.
same,Colonies on control plate of treated cells,Staphylococcus aureus [9]; 24 H at room temperature,NC = Negative Control - Control plate of treated cells (10^6 cells) shows no colony on plate.
same,Colonies on control plate of treated cells,Serratia marcescens [10]; 24 H at room temperature,NC = Negative Control - Control plate of treated cells (10^6 cells) shows no colony on plate.
same,Colonies on control plate of treated cells,Aspergillus brasiliensis [11],NC = Negative Control - Control plate of treated cells (10^6 cells) shows no colony on plate.
same,Colonies on control plate of treated cells,Candida albicans [12],NC = Negative Control - Control plate of treated cells (10^5 cells) shows no colony on plate.
CC(C)O [Isopropanol],Ct Treated,Escherichia coli [1]; [15],33.02 and 33.36 and 32.52 and 31.38 and 31.93
same,Mean Ct (Treated),Escherichia coli [1]; [15],32.44
same,Δ Ct Viable − Dead,Escherichia coli [1]; [15],17.56
same,Ct Treated,Escherichia coli [1]; [16],32.91 and 32.51 and 32.31 and 32.98 and 33.93
same,Mean Ct (Treated),Escherichia coli [1]; [16],32.93
same,Δ Ct Viable − Dead,Escherichia coli [1]; [16],21.00
same,Ct Treated,Serratia marcescens [2]; [15],29.10 and 30.70 and 31.00 and 29.90 and 30.30
same,Mean Ct (Treated),Serratia marcescens [2]; [15],30.20
same,Δ Ct Viable − Dead,Serratia marcescens [2]; [15],13.20
same,Ct Treated,Serratia marcescens [2]; [16],26.90 and 26.20 and 25.90 and 25.40 and 25.50
same,Mean Ct (Treated),Serratia marcescens [2]; [16],25.98
same,Δ Ct Viable − Dead,Serratia marcescens [2]; [16],13.18
same,Ct Treated,Pseudomonas aeruginosa [3]; [15],34.62 and 34.83 and 34.29 and 33.99 and 38.81
same,Mean Ct (Treated),Pseudomonas aeruginosa [3]; [15],35.31
same,Δ Ct Viable − Dead,Pseudomonas aeruginosa [3]; [15],10.99
same,Ct Treated,Pseudomonas aeruginosa [3]; [16],34.59 and 33.28 and 33.21 and 34.18 and 33.26
same,Mean Ct (Treated),Pseudomonas aeruginosa [3]; [16],33.70
same,Δ Ct Viable − Dead,Pseudomonas aeruginosa [3]; [16],13.45
same,Ct Treated,Staphylococcus aureus [4]; [15],29.99 and 29.43 and 29.12 and 29.97 and 29.89
same,Mean Ct (Treated),Staphylococcus aureus [4]; [15],29.68
same,Δ Ct Viable − Dead,Staphylococcus aureus [4]; [15],12.80
same,Ct Treated,Staphylococcus aureus [4]; [16],26.32 and 26.40 and 25.27 and 24.94 and 26.57
same,Mean Ct (Treated),Staphylococcus aureus [4]; [16],25.90
same,Δ Ct Viable − Dead,Staphylococcus aureus [4]; [16],13.09
same,Colonies on control plate of treated cells,Escherichia coli [7]; 1 H at room temperature,NC = Negative Control - Control plate of treated cells (10^6 cells) shows no colony on plate.
same,Colonies on control plate of treated cells,Pseudomonas aeruginosa [8]; 1 H at room temperature,NC = Negative Control - Control plate of treated cells (10^6 cells) shows no colony on plate.
same,Colonies on control plate of treated cells,Staphylococcus aureus [9]; 1 H at room temperature,NC = Negative Control - Control plate of treated cells (10^6 cells) shows no colony on plate.
same,Colonies on control plate of treated cells,Serratia marcescens [10]; 1 H at room temperature,NC = Negative Control - Control plate of treated cells (10^6 cells) shows no colony on plate.
